Laboratory results: patent publication US20150361063A1, “TREATMENT OF AMYLOIDOSIS BY COMPOUNDS THAT REGULATE RETROMER STABILIZATION” (Brandeis University, priority 2011, published 2015)

Key:
[1] = system: animal models for cancer; settings: three different animal models for cancer; cited from earlier work
[2] = system: mice; settings: up to 30 mg/kg; cited from earlier work
[3] = molecular target: T1, intact retromer complex (Homo sapiens, UniProt Q96QK1+Q9UBQ0); experiment: fluorescence thermal stability assay with reconstituted retromer; type: binding
T1 construct: made in house
From the text: We set out to screen and identify compounds that stabilized the active retromer complex, thereby preventing VPS35 degradation and increasing the steady-state level of the complex, which may reduce toxic Abeta. To cast our net wider, we set out to perform virtual screening by docking first, and we were able to do that because crystal structures of several retromer components and, more importantly, the VPS35-VPS29 binary complex, had been published. […] After two years of trial and error in overcoming technical obstacles, we finally succeeded in expressing and purifying each of the individual retromer components separately, and then reconstituting the complete complex in vitro.
We then obtained tested, in a real fluorescence stability assay using our reconstituted retromer, a total of about 50 compounds from our list of the 200 “top hits” in the docking run. It should be noted that there are a total of 7 sites that were identified from the computational surface mapping approach, and we considered anything with a G-score below −7.00 to be in the “top hits”. Four of the sites contained almost all the top hits, so compounds were actually assayed only if they were in the top 200 by G-score and were predicted to bind well to one of these four sites.

N=C(N)SCc1ccc(CSC(=N)N)s1 [compound 55712, [5-(carbamimidoylsulfanylmethyl)thiophen-2-yl]methyl carbamimidothioate]
antitumor activity [1]: no antitumor activity | toxicity to mice [2]: not toxic | hit in actual experimental assays ([3]; compounds from top docking hits of site 2 (VPS35-VPS29 interface)): positive hits | stabilization of the intact retromer complex (thermal stability) ([3]; increase in thermal stability, reconstituted retromer, FIG. 1): 10 degrees Celsius
